Assay results from PMC7226079, “Combining Virtual Screening Protocol and In Vitro Evaluation towards the Discovery of BACE1 Inhibitors” (Biomolecules, 2020).
Several values for one entry are separate records, joined by “and”; a condition that tells them apart may be missing. Equal entries are not always repeated. Peptide text beside a SMILES is read from it. * marks the point of attachment. Cbz = O=C(OCc1ccccc1)*

Molecular target: T1, BACE1 (Homo sapiens, UniProt P56817)
T1 construct: purchased Sigma-Aldrich Co. LLC; CS0010
T1 sequence (P56817 46-501): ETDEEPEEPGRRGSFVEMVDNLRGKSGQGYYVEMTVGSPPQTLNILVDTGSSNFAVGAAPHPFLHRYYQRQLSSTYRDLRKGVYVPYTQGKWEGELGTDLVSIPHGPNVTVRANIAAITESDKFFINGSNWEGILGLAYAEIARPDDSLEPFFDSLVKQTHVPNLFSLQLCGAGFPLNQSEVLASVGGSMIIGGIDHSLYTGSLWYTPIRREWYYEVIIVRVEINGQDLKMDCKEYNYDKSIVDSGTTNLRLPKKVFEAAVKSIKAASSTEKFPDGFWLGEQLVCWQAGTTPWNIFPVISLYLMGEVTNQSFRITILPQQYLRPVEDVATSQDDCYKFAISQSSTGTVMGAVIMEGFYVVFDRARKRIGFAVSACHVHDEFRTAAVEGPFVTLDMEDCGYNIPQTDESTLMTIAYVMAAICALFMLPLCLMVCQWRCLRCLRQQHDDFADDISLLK
Test: Cell-free FRET assay for BACE1 activity (β-Secretase (BACE1) Activity Detection Kit CS0010)
Type: biochemical
Details: 10 μM; Table S2, thirty-four in vitro tested compounds; mean of at least three independent experiments in triplicate

Row | Structure (SMILES) | Average percent inhibition at 10 μM
1 | COc1cc(C(O)C(O)c2cc(CN3CCOCC3)c(O)c(OC)c2)cc(CN2CCOCC2)c1O (stereo not shown) [NSC55229] | 12.1%
2 | N#CC(NCCCNC(C#N)c1ccccc1)c1ccccc1 (stereo not shown) [NSC81537] | 8.6%
3 | CC(=O)c1ccc(OCC(O)CN2CCN(c3ccccc3)CC2)c(C)c1 (stereo not shown) [NSC147841] | 13.0%
4 | CC(=O)c1ccccc1OCC(O)CN1CCN(c2cccc(C(F)(F)F)c2)CC1 (stereo not shown) [NSC147843] | 9.6%
5 | CC(=O)c1ccccc1OCC(O)CN1CCN(c2ccccc2)CC1 (stereo not shown) [NSC147850] | 8.7%
6 | CC(=O)c1cccc(OCC(O)CN2CCN(c3ccc(C)cc3)CC2)c1 (stereo not shown) [NSC147852] | 10.6%
7 | O=C1c2ccccc2C(=O)c2c(NCCCNCCO)ccc(NCCCNCCO)c21 [NSC278467] | 17.0%
8 | O=C(NC(Cc1cnc[nH]1)C(=O)NC(Cc1ccc(O)cc1)C(=O)O)OCc1ccccc1 (stereo not drawn) [NSC333463] (Cbz-His-Tyr-OH; configuration not given here) | 13.4%

Same assay, conditions: 10 μM; mean of at least three independent experiments performed in triplicate; read-out: Average Percent Inhibition at 10 μM

Row | Structure (SMILES) | inhibition at 10 µM
9 | COc1ccc(C(=O)/C=C/c2cn(CC(O)CN3CCN(C)CC3)c3ccccc23)cc1 (stereo not shown) [Compound 11] | 50.3%
10 | Cc1cc(=O)oc2cc(OCC(O)CN3CCN(c4ccc(F)cc4)CC3)ccc12 (stereo not shown) [Compound 12] | 33.5%
11 | O=C(CCc1ccccc1)c1ccccc1OCC(O)CN1CCCCC1 (stereo not shown) [Compound 13] | 34.7%
12 | CC(=O)Nc1ccc(N2C(=O)CC(NCc3ccc(Cl)cc3Cl)C2=O)cc1 (stereo not shown) [Compound 14] | 31.3%
13 | NC(Cc1ccccc1)C(=O)NCC(=O)NC(Cc1ccccc1)C(=O)NCC(=O)O (stereo not shown) [Compound 15] (H-FGFG-OH; configuration not given here) | 30.7%
14 | CC(CCc1ccc(O)cc1)NCCc1ccc(O)c(O)c1 (stereo not shown) [Compound 16, dobutamine] | 29.9%
15 | O=C1c2c(O)ccc(O)c2C(=O)c2c(NCCNCCO)ccc(NCCNCCO)c21 [Compound 17, mitoxantrone] | 22.6%
16 | CCN(CC)CCNc1ccc(CO)c2oc3ccccc3c(=O)c12 [Compound 18] | 20.6%
17 | Cc1ccc(S(=O)(=O)Oc2ccc3oc4c(CO)ccc(NCCN(C)C)c4c(=O)c3c2)cc1 [Compound 19] | 21.2%
18 | O=C1c2ccccc2C(=O)c2c3c(cc(NCCNCCO)c21)N(CCO)CCN3 [Compound 20] | 19.5%
19 | CC(=O)[C@]1(O)Cc2c(O)c3c(c(O)c2[C@@H](O[C@H]2C[C@H](N)[C@H](O)[C@H](C)O2)C1)C(=O)c1ccccc1C3=O [Compound 21, idarubicin] | 18.1%
20 | CC1(C)N=C(N)N=C(N)N1c1cccc(OCCCOc2ccc(NC(=O)CBr)cc2)c1 [Compound 22] | 18.1%

Same assay, conditions: from the dose-response curve (Figure 8)

Row | Structure (SMILES) | IC50
21 | COc1ccc(C(=O)/C=C/c2cn(CC(O)CN3CCN(C)CC3)c3ccccc23)cc1 (stereo not shown) [Compound 11] | 15.4 µM and 15 µM

Same assay, conditions: read-out: Average percent inhibition at 10 μM

Row | Structure (SMILES) | inhibition at 10 µM
22 | O=C1c2ccccc2C(=O)c2c(NCCNCCO)ccc(NCCNCCO)c21 [NSC196473] | 12.4%

Molecular target: T1, BACE1
Test: not given
Parameters: method as in ChEMBL23 [24]
Details: known BACE1 inhibitors of Training/Test sets; ref ChEMBL23 [24]; cited from earlier work

Row | Structure (SMILES) | IC50
23 | O=C(Nc1cc(Br)ccc1N1CCNCC1)c1cccc2ccccc12 [ChEMBL203120] | 1000 nM
24 | CC(C)C[C@H](NC(=O)[C@@H](NC(=O)[C@@H](N)CNC(=O)c1nn[nH]n1)C(C)C)C(=O)N[C@@H](Cc1ccccc1)[C@@H](O)C(=O)Nc1cc(-c2nn[nH]n2)cc(-c2nn[nH]n2)c1 [ChEMBL439521] | 1.2 nM
25 | CCc1cn2c3c(cc(C(=O)N[C@@H](Cc4ccccc4)[C@H](O)CNC4CC4)cc13)N(CC)S(=O)(=O)CC2 [ChEMBL533064] | 20 nM
26 | Cc1cc(C2(c3cccc(-c4cncnc4)c3)N=C(N)N(C)C2=O)ccn1 (stereo not shown) [ChEMBL598258] | 80 nM
27 | NC1=NC(c2ccccc2)(C2CCCCC2)C(=O)N1CCCCCC(=O)O (stereo not shown) [ChEMBL607527] | 950 nM
28 | O=C(C[n+]1ccccc1)Nc1cccc(C(=O)Nc2ccc(Cl)cc2)c1 [ChEMBL1163225] | 1000 nM
29 | NC1=N[C@@]2(CCOC1)c1cc(-c3cccnc3F)ccc1Oc1cnc(-c3ccc(F)c(F)c3)cc12 [ChEMBL2152912] | 2 nM
30 | NC1=NC(c2ccncc2)(c2cccc(-c3cncc(F)c3)c2)c2cccc(F)c21 (stereo not shown) [ChEMBL2177905] | 137 nM
31 | NC1=N[C@@]2(CO1)c1cc(-c3cccnc3F)ccc1Oc1c2cc(N2CCOCC2)nc1F [ChEMBL3394224] | 0.3 nM
32 | CN1C(=O)CC2(N=C1N)c1cc(-c3cccnc3F)ccc1Oc1c2cc(-c2ccnc(F)c2)nc1F (stereo not shown) [ChEMBL3639946] | 2.4 nM
33 | NC1=NC2(CO1)c1cc(NC(=O)c3ncc(Br)cn3)ccc1OCC21CC1 (stereo not shown) [ChEMBL3650820] | 661 nM
34 | CC1(c2cccc(NC(=O)c3ncc(Br)cn3)c2)COCC(N)=N1 (stereo not shown) [ChEMBL3653345] | 540 nM
35 | CC1=NC2(CC(C3CCOC(C)(C)C3)Oc3ccc(-c4cccc(Cl)c4)cc32)N=C1N (stereo not shown) [ChEMBL3653708] | 5 nM
36 | CCc1ccc2c(c1)C1(N=C(N)N(C)O1)[C@]1(CC[C@H](OC)CC1)C2 (stereo partly shown) [ChEMBL3656204] | 521 nM
37 | CC1(C)OCC(N)=N[C@](C)(c2cc(NC3COc4cc(Cl)ccc43)ccc2F)C1(F)F (stereo partly shown) [ChEMBL3670919] | 320 nM
38 | [C-]#[N+]c1ccc(C(=O)Nc2ccc(F)c([C@]34COC[C@@]3(F)CSC(N)=N4)c2)nc1 [ChEMBL3672943] | 6.6 nM
39 | COC1CCC2(CC1)Cc1ccc(-c3cccc(C#N)c3)cc1C21N=C(N)c2ccccc21 (stereo not shown) [ChEMBL3673221] | 6 nM
40 | COc1cc(F)c2c(c1)C1(N=C(N)n3ccnc31)c1cc(-c3cccnc3F)ccc1O2 (stereo not shown) [ChEMBL3677269] | 9 nM
41 | NC1=N[C@@]2(c3cc(-c4cccnc4F)ccc3Oc3c(F)cc(N4CCOCC4)cc32)c2nccn21 [ChEMBL3677276] | 0.7 nM
42 | NC1=N[C@](CF)(c2cc(NC(=O)c3cc4ccccc4cn3)ccc2F)[C@H]2C[C@H]2O1 [ChEMBL3688633] | 500 nM
43 | NC1=NC2(CO1)c1cc(-c3cc(Cl)cnc3F)ccc1OC1(CCC1)C21COC1 (stereo not shown) [ChEMBL3703272] | 827 nM
44 | CC(C)c1ccc(CO[C@H]2CN(S(=O)(=O)c3ccccc3)C[C@@H]2Nc2nc3cc(F)ccc3[nH]2)cc1 [ChEMBL3746896] | 480 nM
45 | CCO[C@H]1CC[C@]2(CC1)Cc1ccc(-c3cccc(OC)c3)cc1C21N=C(N)N(C)C1=O (stereo partly shown) [ChEMBL3978126] | 15 nM
46 | CC#CCOc1cnc(C(=O)Nc2ccc(Cl)c(C3(C(F)F)N=C(N)OC4CC43)c2)cn1 (stereo not shown) [Compound 4] | 3.9 nM
